From the supplement of paper PMC10307832

What was measured:
Assay in all cases: relative viability (nuclei count vs DMSO), 5 days (fraction); higher = more cells survive
[1] = system: COR-L 105
In short: (§1)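 Relative viability was taken as the ratio of nuclei in treated wells to nuclei in vehicle wells. Lung cancer cell lines in 1536-well plates received compounds by pin tool one day after seeding, either one drug alone or a fixed anchor-drug dose plus five library-drug doses (not always all listed) in √10 steps. Nuclei were counted on 4× images after 5 days of treatment, and values are medians of duplicate plates.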

[2] = system: COR-L23
In short: as §1

[3] = system: HARA
In short: as §1

[4] = system: HCC-15
In short: as §1

[5] = system: HOP-62
In short: as §1

[6] = system: NCI-H1355
In short: as §1

[7] = system: NCI-H1395
In short: as §1

[8] = system: NCI-H1734
In short: as §1

[9] = system: NCI-H1755
In short: as §1

[10] = system: NCI-H1792
In short: as §1

[11] = system: NCI-H1793
In short: as §1

[12] = system: NCI-H1993
In short: as §1

[13] = system: NCI-H2009
In short: as §1

[14] = system: NCI-H2228
In short: as §1

[15] = system: NCI-H2347
In short: as §1

[16] = system: NCI-H358
In short: as §1

[17] = system: NCI-H647
In short: as §1

[18] = system: NCI-H838
In short: as §1

[19] = system: SK-MES-1
In short: as §1

[20] = system: UMC-11
In short: as §1

COc1nc(C)cnc1NS(=O)(=O)c1cccnc1-c1ccc(-c2nnco2)cc1 [Zibotentan] + C[C@]1(O)C[C@@H](c2nc(-c3ccc4ccc(-c5ccccc5)nc4c3)c3c(N)nccn32)C1 [Linsitinib] (partner 1 µM)
relative viability ([1]; first compound 0.08 µM): 1.02 | relative viability ([1]; first compound 0.253 µM): 0.871 | relative viability ([1]; first compound 0.8 µM): 0.986 | relative viability ([1]; first compound 2.53 µM): 0.919 | relative viability ([2]; first compound 0.08 µM): 1.02 | relative viability ([2]; first compound 0.253 µM): 0.748 | relative viability ([2]; first compound 0.8 µM): 0.896 | relative viability ([2]; first compound 2.53 µM): 1.14 | relative viability ([3]; first compound 0.08 µM): 1.24 | relative viability ([3]; first compound 0.253 µM): 0.945 | relative viability ([3]; first compound 0.8 µM): 0.955 | relative viability ([3]; first compound 2.53 µM): 0.902 | relative viability ([4]; first compound 0.08 µM): 0.905 | relative viability ([4]; first compound 0.253 µM): 0.912 | relative viability ([4]; first compound 0.8 µM): 0.867 | relative viability ([4]; first compound 2.53 µM): 0.878 | relative viability ([5]; first compound 0.08 µM): 0.805 | relative viability ([5]; first compound 0.253 µM): 1.06 | relative viability ([5]; first compound 0.8 µM): 0.992 | relative viability ([5]; first compound 2.53 µM): 1.29 | relative viability ([6]; first compound 0.08 µM): 0.812 | relative viability ([6]; first compound 0.253 µM): 0.818 | relative viability ([6]; first compound 0.8 µM): 0.824 | relative viability ([6]; first compound 2.53 µM): 0.909 | relative viability ([7]; first compound 0.08 µM): 1.39 | relative viability ([7]; first compound 0.253 µM): 1.07 | relative viability ([7]; first compound 0.8 µM): 1.05 | relative viability ([7]; first compound 2.53 µM): 1.08 | relative viability ([8]; first compound 0.08 µM): 1.01 | relative viability ([8]; first compound 0.253 µM): 0.815 | relative viability ([8]; first compound 0.8 µM): 0.936 | relative viability ([8]; first compound 2.53 µM): 0.975 | relative viability ([9]; first compound 0.08 µM): 0.99 | relative viability ([9]; first compound 0.253 µM): 0.967 | relative viability ([9]; first compound 0.8 µM): 1.03 | relative viability ([9]; first compound 2.53 µM): 1.03 | relative viability ([10]; first compound 0.08 µM): 0.426 | relative viability ([10]; first compound 0.253 µM): 0.448 | relative viability ([10]; first compound 0.8 µM): 0.396 | relative viability ([10]; first compound 2.53 µM): 0.556 | relative viability ([11]; first compound 0.08 µM): 0.811 | relative viability ([11]; first compound 0.253 µM): 0.824 | relative viability ([11]; first compound 0.8 µM): 1.05 | relative viability ([11]; first compound 2.53 µM): 1.01 | relative viability ([12]; first compound 0.253 µM): 0.838 | relative viability ([12]; first compound 0.8 µM): 0.75 | relative viability ([12]; first compound 2.53 µM): 0.85 | relative viability ([13]; first compound 0.08 µM): 1.14 | relative viability ([13]; first compound 0.253 µM): 1.05 | relative viability ([13]; first compound 0.8 µM): 1.2 | relative viability ([13]; first compound 2.53 µM): 1.22 | relative viability ([14]; first compound 0.08 µM): 0.722 | relative viability ([14]; first compound 0.253 µM): 0.467 | relative viability ([14]; first compound 0.8 µM): 0.903 | relative viability ([14]; first compound 2.53 µM): 0.728 | relative viability ([15]; first compound 0.08 µM): 0.982 | relative viability ([15]; first compound 0.253 µM): 0.833 | relative viability ([15]; first compound 0.8 µM): 1.11 | relative viability ([15]; first compound 2.53 µM): 0.969 | relative viability ([16]; first compound 0.08 µM): 0.782 | relative viability ([16]; first compound 0.8 µM): 0.778 | relative viability ([16]; first compound 2.53 µM): 0.805 | relative viability ([17]; first compound 0.08 µM): 1.12 | relative viability ([17]; first compound 0.253 µM): 1.14 | relative viability ([17]; first compound 0.8 µM): 1.11 | relative viability ([17]; first compound 2.53 µM): 1.15 | relative viability ([18]; first compound 0.08 µM): 1.02 | relative viability ([18]; first compound 0.253 µM): 0.957 | relative viability ([18]; first compound 0.8 µM): 1 | relative viability ([18]; first compound 2.53 µM): 0.959 | relative viability ([19]; first compound 0.08 µM): 1.12 | relative viability ([19]; first compound 0.253 µM): 1 | relative viability ([19]; first compound 0.8 µM): 1.05 | relative viability ([19]; first compound 2.53 µM): 1.14 | relative viability ([20]; first compound 0.08 µM): 1.11 | relative viability ([20]; first compound 0.253 µM): 0.944 | relative viability ([20]; first compound 0.8 µM): 1.03 | relative viability ([20]; first compound 2.53 µM): 1.05
